{
  "source": "patent US10548906B2",
  "about": "“Methods of promoting hepatic regeneration” (Intercept Pharmaceuticals, Inc., priority 2015, dated 2020)",
  "tested_on": "Wistar rats",
  "test": "Liver growth in cholestatic (rBDL) rats prior to partial hepatectomy (Example 6)",
  "assay_type": "in vivo, rat",
  "conditions": "prior to PHx",
  "source_text": "After the acclimatization period, the rats either continued on a regular chow diet or were switched to a methionine and choline-deficient (MCD) diet (Harlan Teklad, Madison, Wis.) for 3 weeks to induce moderate hepatic steatosis [Heger 2011a]. At the start of the second diet week, the rats either underwent sham surgery or were subjected to reversible bile duct ligation (rBDL). For rBDL, the extrahepatic bile duct was cannulated with a polyethylene catheter (length=±1.5 cm, inner diameter=0.4 mm, outer diameter=0.9 mm, Braun, Melsungen, Germany) connected to Silastic Tubing with a closed distal tip (length=±7.5 cm, inner diameter=0.8 mm, outer diameter=1.4 mm, Dow Corning, Midland, Mich.) [Kloek 2008]. Sham-operated animals underwent abdominal surgery, including bile duct mobilization, without inducing a biliary obstruction. Groups of rBDL rats were left untreated or received a daily oral gavage of the FXR agonist obeticholic acid (OCA, 10 mg/kg in 0.5% methylcellulose, 1.5 mL per 300 g body weight) between 7:30 and 9:00 AM.\nSeven days after BDL or sham operation, all rats were subjected to 70% PHx [DeGraaf 2011]. […]\nAt baseline (i.e., directly before PHx) and one to five days after PHx, animals were euthanized under isoflurane anesthesia by exsanguination. […] Liver regrowth was calculated from the regenerated liver mass, and was expressed as percentage of total liver mass prior to PHx. The projected remnant liver mass was calculated using the weight of the resected liver segments, which represent 70% of the total liver mass. Dry liver weights were measured to correct for hepatic water content [Kloek 2010a].\nAfter formalin fixation, liver specimens were dehydrated, paraffin-embedded, and stained with hematoxylin and eosin (H&E), the collagen type I and III stain picrosirius red, or the proliferation marker Ki67 [Marsman 2013]. Semi-quantitative analysis of H&E- and picrosirius red-stained liver histology was performed by an experienced hepatopathologist (JV) blinded to the experimental groups using a scoring system detailed in Table 1. […]",
  "data": [
    {"compound": "CC[C@H]1[C@@H](O)[C@@H]2[C@H](CC[C@]3(C)[C@@H]([C@H](C)CCC(=O)O)CC[C@@H]23)[C@@]2(C)CC[C@@H](O)C[C@@H]12", "note": "[Compound 1, 3α,7α-dihydroxy-6α-ethyl-5β-cholanic acid]", "values": [
      {"measurement": "liver mass corrected for hepatic water content (dry weight)", "setting": "7 days rBDL", "result": "increased liver mass"},
      {"measurement": "gross liver mass vs control group", "setting": "7 days rBDL, 10 mg/kg daily oral", "result": "higher"},
      {"measurement": "hepatocyte proliferation measured by Ki67 staining", "setting": "vs untreated rBDL or non-cholestatic animals", "result": "more pronounced"}
    ]}
  ]
}
